The text below walks through data of US12441755B2, “Galactoside inhibitor of galectins” (GALECTO BIOTECH AB, priority 2019, dated 2025).

The target of test [1] is Gal-3 (Homo sapiens, UniProt P17931). As to the kind of experiment: Fluorescence anisotropy assay, compound as inhibitor of galectin / fluorescein tagged saccharide probe interaction. It counts as binding. On the procedure: (§1) The affinity of Example 1-29 for galectins were determined by a fluorescence anisotropy assay where the compound was used as an inhibitor of the interaction between galectin and a fluorescein tagged saccharide probe as described Sörme, P., Kahl-Knutsson, B., Huflejt, M., Nilsson, U. J., and Leffler H. (2004) Fluorescence polarization as an analytical tool to evaluate galectin-ligand interactions. Anal. Biochem. 334: 36-47, (Sörme et al., 2004) and Monovalent interactions of Galectin-1 By Salomonsson, Emma; Larumbe, Amaia; Tejler, Johan; Tullberg, Erik; Rydberg, Hanna; Sundin, Anders; Khabut, Areej; Frejd, Torbjorn; Lobsanov, Yuri D.; Rini, James M.; et al, From Biochemistry (2010), 49(44), 9518-9532, (Salomonsson et al., 2010).

Test [2] has as its target Gal-1 (Homo sapiens, UniProt P09382). The test is described as above. Type of test: binding. The protocol: as §1
Test [3] deals with galectins. The settings on record: compared with lactose; cited from earlier work.

Gal-1, sequence (P09382 whole entry): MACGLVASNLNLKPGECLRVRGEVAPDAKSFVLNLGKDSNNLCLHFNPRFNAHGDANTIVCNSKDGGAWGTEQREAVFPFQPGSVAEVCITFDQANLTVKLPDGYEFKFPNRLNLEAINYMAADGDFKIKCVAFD
Gal-3, sequence (P17931 whole entry): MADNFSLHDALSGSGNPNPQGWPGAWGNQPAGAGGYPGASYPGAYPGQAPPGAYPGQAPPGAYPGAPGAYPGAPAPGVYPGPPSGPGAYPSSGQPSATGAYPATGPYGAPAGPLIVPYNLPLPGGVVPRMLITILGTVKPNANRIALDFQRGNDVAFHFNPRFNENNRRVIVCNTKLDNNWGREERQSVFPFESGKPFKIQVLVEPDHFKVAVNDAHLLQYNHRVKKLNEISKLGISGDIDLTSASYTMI

Take `Cc1nc2ccc(-n3cnnc3[C@@H]3O[C@H](CO)[C@H](O)[C@H](n4cc(-c5nc(Cl)cs5)nn4)[C@H]3O)cc2s1` [Example 1, 6-{3-{3-[4-(4-Chlorothiazol-2-yl)-1H-1,2,3-triazol-1-yl]-3-deoxy-β-D-galactopyranosyl}-4H-1,2,4-triazol-4-yl}-2-methylbenzothiazole]: the Kd in test [1] was determined as 150 nM; in test [2] it was 750 nM. For the compound `Cc1nc2ccc(-n3cnnc3[C@@H]3O[C@H](CO)[C@H](O)[C@H](n4cc(-c5csc(N)n5)nn4)[C@H]3O)cc2s1` [Example 6, 6-{3-{3-[4-(2-Aminothiazol-4-yl)-1H-1,2,3-triazol-1-yl]-3-deoxy-β-D-galactopyranosyl}-4H-1,2,4-triazol-4-yl}-2-methylbenzothiazole], the Kd in test [1] was determined as 1900 nM; in test [2], 1600 nM. In the case of `Cc1nc2ccc(-n3cnnc3[C@@H]3O[C@H](CO)[C@H](O)[C@H](n4cc(-c5csc(O)n5)nn4)[C@H]3O)cc2s1` [Example 8, 6-{3-{3-Deoxy-3-[4-(2-hydroxythiazol-4-yl)-1H-1,2,3-triazol-1-yl]-β-D-galactopyranosyl}-4H-1,2,4-triazol-4-yl}-2-methylbenzothiazole], the Kd in test [1] was 1900 nM; in test [2], 320 nM. For `Cc1nnc([C@@H]2O[C@H](CO)[C@H](O)[C@H](n3cc(-c4nc(Cl)cs4)nn3)[C@H]2O)n1-c1cc(Cl)ccc1C(F)(F)F` [Example 9, 1-{3-{3-[4-(4-Chlorothiazol-2-yl)-1H-1,2,3-triazol-1-yl]-3-deoxy-β-D-galactopyranosyl}-5-methyl-4H-1,2,4-triazol-4-yl}-5-chloro-2-(trifluoromethyl)benzene] the same measures were 41 nM and 290 nM. As to `Cc1nc([C@@H]2O[C@H](CO)[C@H](O)[C@H](n3cc(-c4nccs4)nn3)[C@H]2O)n(-c2ccc3nc(C)sc3c2)n1` [Example 10, 6-{5-{3-Deoxy-3-[4-(2-thiazolyl)-1H-1,2,3-triazol-1-yl]β-D-galactopyranosyl}-3-methyl-1H-1,2,4-triazol-1-yl}-2-methylbenzothiazole], the Kd is 2300 nM in test [1] and 5200 nM in test [2]. For `Cc1csc(-c2cn([C@H]3[C@@H](O)[C@@H](CO)O[C@@H](c4nnc(C)n4-c4cc(Cl)ccc4C(F)(F)F)[C@@H]3O)nn2)n1` [Example 11, 5-Chloro-1-{3-{3-deoxy-3-[4-(4-methylthiazol-2-yl)-1H-1,2,3-triazol-1-yl]-β-D-galactopyranosyl}-5-methyl-4H-1,2,4-triazol-4-yl}-2-(trifluoromethyl)benzene] the same measures were 700 nM and 2100 nM.

With `Cc1nnc([C@@H]2O[C@H](CO)[C@H](O)[C@H](n3cc(-c4csc(O)n4)nn3)[C@H]2O)n1-c1cc(Cl)ccc1C(F)(F)F` [Example 12, 5-Chloro-1-{3-{3-deoxy-3-[4-(2-hydroxythiazol-4-yl)-1H-1,2,3-triazol-1-yl]β-D-galactopyranosyl}-5-methyl-4H-1,2,4-triazol-4-yl}-2-(trifluoromethyl)benzene], the Kd in test [1] turned out to be 520 nM; in test [2], 190 nM.

As for `Cc1nc([C@@H]2O[C@H](CO)[C@H](O)[C@H](n3cc(-c4csc(C)n4)nn3)[C@H]2O)n(-c2ccc3nc(C)sc3c2)n1` [Example 13, 6-{5-{3-Deoxy-3-[4-(2-methylthiazol-4-yl)-1H-1,2,3-triazol-1-yl]β-D-galactopyranosyl}-3-methyl-1H-1,2,4-triazol-1-yl}-2-methylbenzothiazole], the Kd in test [1] worked out at 1800 nM; in test [2], 9000 nM.

Consider `Cc1nc([C@@H]2O[C@H](CO)[C@H](O)[C@H](n3cc(-c4cncs4)nn3)[C@H]2O)n(-c2ccc3nc(C)sc3c2)n1` [Example 14, 6-{5-{3-Deoxy-3-[4-(5-thiazolyl)-1H-1,2,3-triazol-1-yl]β-D-galactopyranosyl}-3-methyl-1H-1,2,4-triazol-1-yl}-2-methylbenzothiazole], for which the Kd in test [1] came to 2300 nM; in test [2] it was 19500 nM. Consider `Cc1nc([C@@H]2OC(CO)[C@H](O)C(n3cc(-c4csc(N)n4)nn3)C2O)n(-c2cc(Cl)ccc2C(F)(F)F)n1` (some centres unmarked) [Example 15], for which the Kd in test [1] stood at 1300 nM; in test [2] it was 1500 nM.

For `Cc1nc([C@@H]2OC(CO)[C@H](O)C(n3cc(-c4nc(Cl)cs4)nn3)C2O)n(-c2cc(Cl)ccc2C(F)(F)F)n1` (some centres unmarked) [Example 16], the Kd came to 39 nM in test [1] and 900 nM in test [2].

With `CO[C@@H]1[C@@H](n2cc(-c3nc(Cl)cs3)nn2)[C@@H](O)[C@@H](CO)O[C@H]1c1nnc(C)n1-c1cc(Cl)ccc1C(F)(F)F` [Example 17, 1-{3-{3-[4-(4-Chlorothiazol-2-yl)-1H-1,2,3-triazol-1-yl]-3-deoxy-2-O-methyl-β-D-galactopyranosyl}-5-methyl-4H-1,2,4-triazol-4-yl}-5-chloro-2-(trifluoromethyl)benzene], the Kd in test [1] came out at 26 nM; in test [2], 520 nM. For `Cc1nc([C@@H]2O[C@H](CO)[C@H](O)[C@H](n3cc(-c4nc(Cl)cs4)nn3)[C@H]2O)n(-c2cc(Cl)cnc2C2CC2)n1` [Example 18, 3-{5-{3-[4-(4-Chlorothiazol-2-yl)-1H-1,2,3-triazol-1-yl]-3-deoxy-β-D-galactopyranosyl}-3-methyl-1H-1,2,4-triazol-1-yl}-5-chloro-2-cyclopropylpyridine] the same measures were 130 nM and 660 nM.

With `Cc1nnc([C@@H]2O[C@H](CO)[C@H](O)[C@H](n3cc(-c4csc(N)n4)nn3)[C@H]2O)n1-c1cc(Cl)ccc1C(F)(F)F` [Example 19, 1-{3-{3-[4-(2-Aminothiazol-4-yl)-1H-1,2,3-triazol-1-yl]-3-deoxy-β-D-galactopyranosyl}-5-methyl-4H-1,2,4-triazol-4-yl}-5-chloro-2-(trifluoromethyl)benzene], the Kd in test [1] is 820 nM; in test [2], 730 nM. As for `Cc1nnc([C@@H]2O[C@H](CO)[C@H](O)[C@H](n3cc(-c4nccs4)nn3)[C@H]2O)n1-c1cc(Cl)ccc1C(F)(F)F` [Example 20, 5-Chloro-1-{3-{3-deoxy-3-[4-(2-thiazolyl)-1H-1,2,3-triazol-1-yl]β-D-galactopyranosyl}-5-methyl-4H-1,2,4-triazol-4-yl}-2-(trifluoromethyl)benzene], the Kd was 150 nM in test [1] and 690 nM in test [2]. In the same order, the values of `Cc1nc2ccc(-n3cnnc3[C@@H]3O[C@H](CO)[C@H](O)[C@H](n4cc(-c5nccs5)nn4)[C@H]3O)cc2s1` [Example 21, 6-{3-{3-Deoxy-3-[4-(2-thiazolyl)-1H-1,2,3-triazol-1-yl]-β-D-galactopyranosyl}-4H-1,2,4-triazol-4-yl}-2-methylbenzothiazole] are 1200 nM and 3000 nM. On to `Cc1csc(-c2cn([C@H]3[C@@H](O)[C@@H](CO)O[C@@H](c4nncn4-c4ccc5nc(C)sc5c4)[C@@H]3O)nn2)n1` [Example 22, 6-{3-{3-Deoxy-3-[4-(4-methylthiazol-2-yl)-1H-1,2,3-triazol-1-yl]-β-D-galactopyranosyl}-4H-1,2,4-triazol-4-yl}-2-methylbenzothiazole], for which the Kd in test [1] was 1800 nM; in test [2] it was 2400 nM. For `Cc1nc([C@@H]2O[C@H](CO)[C@H](O)[C@H](n3cc(-c4nc(Cl)cs4)nn3)[C@H]2O)n(-c2ccc3nc(C)sc3c2)n1` [Example 23, 6-{5-{3-[4-(4-Chlorothiazol-2-yl)-1H-1,2,3-triazol-1-yl]-3-deoxy-β-D-galactopyranosyl}-3-methyl-1H-1,2,4-triazol-1-yl}-2-methylbenzothiazole] the same measures were 140 nM and 2100 nM.

For the compound `Cc1nc([C@@H]2O[C@H](CO)[C@H](O)[C@H](n3cc(-c4csc(N)n4)nn3)[C@H]2O)n(-c2ccc3nc(C)sc3c2)n1` [Example 24, 6-{5-{3-[4-(2-Aminothiazol-4-yl)-1H-1,2,3-triazol-1-yl]-3-deoxy-β-D-galactopyranosyl}-3-methyl-1H-1,2,4-triazol-1-yl}-2-methylbenzothiazole], the Kd in test [1] was 2600 nM; in test [2] it was 3200 nM. In the same order, the values of `CO[C@@H]1[C@@H](n2cc(-c3nc(Cl)cs3)nn2)[C@@H](O)[C@@H](CO)O[C@H]1c1nnc(C)n1-c1ccc2nc(C)sc2c1` [Example 25, 6-{3-{3-[4-(4-Chlorothiazol-2-yl)-1H-1,2,3-triazol-1-yl]-3-deoxy-2-O-methyl-β-D-galactopyranosyl}-5-methyl-4H-1,2,4-triazol-4-yl}-2-methylbenzothiazole] are 70 nM and 340 nM. Regarding `Cc1nc2ccc(-n3c(C)nnc3[C@@H]3O[C@H](CO)[C@H](O)[C@H](n4cc(-c5nc(Cl)cs5)nn4)[C@H]3O)cc2s1` [Example 26, 6-{3-{3-[4-(4-Chlorothiazol-2-yl)-1H-1,2,3-triazol-1-yl]-3-deoxy-β-D-galactopyranosyl}-5-methyl-4H-1,2,4-triazol-4-yl}-2-methylbenzothiazole], the Kd worked out at 65 nM in test [1] and 590 nM in test [2].

`Cc1nnc([C@@H]2OC(CO)[C@H](O)C(n3cc(-c4nc(Cl)cs4)nn3)C2O)n1-c1ccc2ncn(C)c2c1` (stereo partly drawn) [Example 27, 5-{3-{3-[4-(4-Chlorothiazol-2-yl)-1H-1,2,3-triazol-1-yl]-3-deoxy-β-D-galactopyranosyl}-5-methyl-4H-1,2,4-triazol-4-yl}-N-3-methylbenzimidazole]: the figures for the Kd in test [1] and in test [2] were 36 nM and 2600 nM, respectively. In the same order, the values of `Cc1nc2ccc(-n3nccc3[C@@H]3OC(CO)[C@H](O)C(n4cc(-c5nc(Cl)cs5)nn4)C3O)cc2s1` (some centres unmarked) [Example 29] are 600 nM and 33 nM. In the case of `O=C[C@H](O)[C@@H](O)[C@@H](O)[C@H](O)CO` [Galactose, D-galactose], in test [3], the “affinity relative to lactose, times lower” value is given as 50-100 times lower.
